Consider 23 compounds from ChEMBL document CHEMBL6087432, “Brominated chalcones as promising antileishmanial agents” (Bioorg Med Chem Lett, 2025).

pIC50: −log10 of the molar value.

Series [1] concerns Leishmania amazonensis. Briefly: Antileishmanial activity against Leishmania amazonensis promastigotes assessed as inhibition of parasite viability measured after 24 hrs by resazurin based colorimetric assay. Type of series: functional, organism-based. Background: Alamar Blue is a resazurin reagent that responds to reducing activity.
Series [2] in a line: Cytotoxicity against mouse L929 cells assessed as cell viability at 100 uM measured after 24 hrs by MTT assay relative to control. Type of series: toxicity, cell-based. The note with it: read-out: Activity. A general note: Tetrazolium dyes change colour on reduction, which living cells bring about.
For series [3], the system named is Leishmania amazonensis. Briefly: Antileishmanial activity against Leishmania amazonensis promastigotes assessed as inhibition of parasite viability at 50 uM measured after 24 hrs by resazurin based colorimetric assay relative to control. Type of series: functional.
A short description of series [4]: Cytotoxicity against mouse L929 cells assessed as cell viability upto 50 uM measured after 24 hrs by MTT assay relative to control. Type of series: toxicity, cell-based. The note with it: read-out: Activity.

As a reminder, the pIC50 is the IC50 on a negative log10 scale, so that one unit is a factor of ten. As usually defined, the inhibition is the share of the control response that was lost under treatment. Consider `COc1cc(OC)c(OC)cc1/C=C/C(=O)c1ccc(Br)cc1`, for which the pIC50 in series [1] was 5.20. In addition, in series [2], the viability at 24 h, 100 µM was more than 60%. In series [3], the inhibition at 50 µM came to 98.2%. The viability at 24 h, 50 µM in series [4] was more than 80%.
Regarding `CN(C)c1ccc(/C=C/C(=O)c2cccc(Br)c2)cc1`, in series [1], the negative-log IC50 (pIC50) was 4.97. Besides, the viability at 24 h, 100 µM in series [2] was more than 70%. Moreover, the inhibition at 50 µM in series [3] was 98.7%. Also, in series [4], the viability at 24 h, 50 µM was more than 80%.
Turning to `O=C(/C=C/c1cccs1)c1ccc(Br)cc1`, the inhibition at 50 µM in series [3] came to 93.6%.
Still for that read-out and setting: for `COc1ccc(/C=C/C(=O)c2cccc(Br)c2)cc1` the value was 93%; for `COc1ccc(/C=C/C(=O)c2ccc(Br)cc2)cc1`, 80.7%.
Turning to `O=C(/C=C/c1ccccc1)c1cccc(Br)c1`, the pIC50 in series [1] was 4.86. The viability at 24 h, 100 µM in series [2] was more than 60%. In addition, the inhibition at 50 µM in series [3] amounted to 99.8%. Moreover, in series [4], the viability at 24 h, 50 µM was more than 80%.
Regarding `CN(C)c1ccc(/C=C/C(=O)c2ccc(Br)cc2)cc1`, in series [3], the inhibition at 50 µM amounted to 91.2%.
Same read-out and setting: then `CSc1ccc(/C=C/C(=O)c2ccc(Br)cc2)cc1`, with 39.3%; and `Cc1ccc(/C=C/C(=O)c2ccc(Br)cc2)cc1`, with 57%; and `O=C(/C=C/c1ccc2c(c1)OCO2)c1ccc(Br)cc1`, with 87.5%.
Same read-out and setting: then `O=C(/C=C/c1cccc2ccccc12)c1ccc(Br)cc1`, with 83.9%; and `O=C(/C=C/c1ccc(OCc2ccccc2)cc1)c1cccc(Br)c1`, with 95%.
Consider `O=C(/C=C/c1ccccc1F)c1ccc(Br)cc1`, for which the pIC50 in series [1] was 4.62. The viability at 24 h, 100 µM in series [2] is more than 60%. Besides, the inhibition at 50 µM in series [3] stood at 99.4%. Moreover, the viability at 24 h, 50 µM in series [4] was more than 80%.
Consider `Cc1ccc(/C=C/C(=O)c2cccc(Br)c2)cc1`, for which, in series [3], the inhibition at 50 µM turned out to be 94.8%.
Still for that read-out and setting: for `O=C(/C=C/c1ccccc1F)c1cccc(Br)c1` the value was 91.7%; for `O=C(/C=C/C=C/c1ccccc1)c1ccc(Br)cc1`, 33.8%.
Consider `O=C(/C=C/c1cccs1)c1cccc(Br)c1`, for which the inhibition at 50 µM in series [3] was found to be 86.7%.
On the same count and under the same terms, for `O=C(/C=C/C=C/c1ccccc1)c1cccc(Br)c1` the value was 90.8%; for `O=C(/C=C/c1cccc2ccccc12)c1cccc(Br)c1`, 90.8%; for `O=C(/C=C/c1ccc(OCc2ccccc2)cc1)c1ccc(Br)cc1`, 24.2%.
Turning to `CSc1ccc(/C=C/C(=O)c2cccc(Br)c2)cc1`, the negative logarithm of the IC50 (pIC50) in series [1] is 4.94. Besides, the viability at 24 h, 100 µM in series [2] was more than 70%. Besides, the inhibition at 50 µM in series [3] was found to be 97.3%. For the same compound, the viability at 24 h, 50 µM in series [4] is more than 80%.
As to `C[C@@H]1[C@H](O)[C@@H](C)/C=C/C=C/C=C/C=C/C=C/C=C/C=C/[C@H](O[C@@H]2O[C@H](C)[C@@H](O)[C@H](N)[C@@H]2O)C[C@@H]2O[C@](O)(C[C@@H](O)C[C@@H](O)[C@H](O)CC[C@@H](O)C[C@@H](O)CC(=O)O[C@H]1C)C[C@H](O)[C@H]2C(=O)O` [AMPHOTERICIN B], the pIC50 in series [1] is 6.94.
Take `O=C(/C=C/c1ccccc1)c1ccccc1` [CHALCONE]: the pIC50 in series [1] is 4.97. Besides, in series [3], the inhibition at 50 µM was found to be 90.1%.
